According to publication PMC8397291 (2021):

Tests used:
[1] = test system: VAV-1 (DNA, G4) GGGCAGGGAGGGAACTGGG; assay: fluorescence titration, 1:1 global fit (Bindfit); conditions: 100 mM KCl; 50 mM Tris pH 7.5, 25 °C, 0.6% DMSO; 1.5 μM compound
[2] = test system: c-MYC sG4 (DNA, G4) GGGTGGGTAGGGTGGG; assay: fluorescence titration, 1:1 global fit (Bindfit); conditions: 100 mM KCl; 50 mM Tris pH 7.5, 25 °C, 0.6% DMSO; 1.5 μM compound
[3] = test system: BCL-2 (DNA, G4) GGGCGCGGGAGGGAATTGGCGGGG; assay: fluorescence titration, 1:1 global fit (Bindfit); conditions: 100 mM KCl; 50 mM Tris pH 7.5, 25 °C, 0.6% DMSO; 1.5 μM compound
[4] = test system: c-MYC Pu24T (DNA, G4) TGAGGGTGGTGAGGGTGGGGAAGG; assay: 1D 1H NMR titration, imino shifts; conditions: 10 mM potassium phosphate, 35 mM KCl; pH 7.4, 298 K; 90 μM DNA, up to 5 eq. 2a
[5] = test system: c-KIT 2 (DNA, G4) CCCGGGCGGGCGCGAGGGAGGGGAGG; assay: fluorescence titration, 1:1 global fit (Bindfit); conditions: 100 mM KCl; 50 mM Tris pH 7.5, 25 °C, 0.6% DMSO; 1.5 μM compound
[6] = test system: Tel-22 (DNA, G4) AGGGTTAGGGTTAGGGTTAGGG; assay: fluorescence titration, 1:1 global fit (Bindfit); conditions: 100 mM KCl; 50 mM Tris pH 7.5, 25 °C, 0.6% DMSO; 1.5 μM compound
[7] = test system: c-MYC Pu22 (DNA, G4) TGAGGGTGGGTAGGGTGGGTAA; assay: fluorescence titration, 1:1 global fit (Bindfit); conditions: 100 mM KCl; 50 mM Tris pH 7.5, 25 °C, 0.6% DMSO; 1.5 μM compound
[8] = test system: c-MYC Pu22 (DNA, G4) TGAGGGTGGGTAGGGTGGGTAA; assay: fluorescence displacement of 2a; conditions: tracer 2a displaced
[9] = test system: TBA (DNA, G4) GGTTGGTGTGGTTGG; assay: UV-vis and fluorescence titration; conditions: 100 mM KCl; 50 mM Tris pH 7.5, 25 °C; 1.5-3.0 μM compound, up to 5.0 eq. DNA
[10] = test system: Tel-22 (DNA, G4) AGGGTTAGGGTTAGGGTTAGGG; assay: UV-vis and fluorescence titration; conditions: 100 mM KCl; 50 mM Tris pH 7.5, 25 °C; 1.5-3.0 μM compound, up to 5.0 eq. DNA
[11] = test system: c-MYC Pu22 (DNA, G4) TGAGGGTGGGTAGGGTGGGTAA; assay: UV-vis and fluorescence titration; conditions: 100 mM KCl; 50 mM Tris pH 7.5, 25 °C; 1.5-3.0 μM compound, up to 5.0 eq. DNA

For `CCN(CC)c1ccc2cc(C(=N)N)c(=O)oc2c1`, the Kd [1] was 15.0 µM, the Kd [2] was 12.6 µM and the Kd [3] was 14.6 µM. The binding [4] was “yes”, the Kd [5] was 9.1 µM and the Kd [6] was 45.2 µM. It also gave a Kd [7] of 13.0 µM.
In the case of `C[n+]1cc(NC(=O)c2ccc3ccc4ccc(C(=O)Nc5cc6ccccc6[n+](C)c5)nc4c3n2)cc2ccccc21`, the binding [8] is reported as “yes”.
`N=C(N)c1cc2cc3c4c(c2oc1=O)CCCN4CCC3` was tested, and the Kd [1] was 0.3 µM, the Kd [3] was 0.5 µM and the Kd [5] was 0.7 µM. It also gave a Kd [6] of 3.8 µM and a Kd [7] of 0.3 µM.
`N=C(N)c1cc2ccc(O)cc2oc1=O` was tested, and the binding [9] was “no”, the binding [10] was “no” and the binding [11] was “no”.
